Laboratory results reported in ChEMBL document CHEMBL5620353, “Novel antifungal triazoles with alkynyl-methoxyl side chains: Design, synthesis, and biological activity evaluation” (Eur J Med Chem, 2023).

How the values were obtained:
Saccharomyces cerevisiae [1] = test: Antifungal activity against recombinant Saccharomyces cerevisiae Y2462 overexpressing ScErg11 ScNcp1 assessed as inhibition of fungal growth incubated for 48 hrs by microbroth dilution method; assay type: functional
Saccharomyces cerevisiae [2] = test: Antifungal activity against recombinant Saccharomyces cerevisiae Y2374 overexpressing CgErg11 assessed as inhibition of fungal growth incubated for 48 hrs by microbroth dilution method; assay type: functional
Saccharomyces cerevisiae [3] = test: Antifungal activity against recombinant Saccharomyces cerevisiae Y2513 overexpressing ScErg11 Y140H assessed as inhibition of fungal growth incubated for 48 hrs by microbroth dilution method; assay type: functional
Saccharomyces cerevisiae [4] = test: Antifungal activity against recombinant Saccharomyces cerevisiae Y2411 overexpressing ScErg11 assessed as inhibition of fungal growth incubated for 48 hrs by microbroth dilution method; assay type: functional
Saccharomyces cerevisiae [5] = test: Antifungal activity against recombinant Saccharomyces cerevisiae Y2716 overexpressing CpErg11 Y132F CpCpr assessed as inhibition of fungal growth incubated for 48 hrs by microbroth dilution method; assay type: functional
Saccharomyces cerevisiae [6] = test: Antifungal activity against recombinant Saccharomyces cerevisiae Y2459 overexpressing CaErg11 CaCpr assessed as inhibition of fungal growth incubated for 48 hrs by microbroth dilution method; assay type: functional
Saccharomyces cerevisiae [7] = test: Antifungal activity against recombinant Saccharomyces cerevisiae Y2300 overexpressing ScErg11 assessed as inhibition of fungal growth incubated for 48 hrs by microbroth dilution method; assay type: functional
Saccharomyces cerevisiae [8] = test: Antifungal activity against recombinant Saccharomyces cerevisiae Y2301 overexpressing ScErg11 Y140F assessed as inhibition of fungal growth incubated for 48 hrs by microbroth dilution method; assay type: functional
Saccharomyces cerevisiae [9] = test: Antifungal activity against recombinant Saccharomyces cerevisiae Y2721 overexpressing CpErg11 CpCpr assessed as inhibition of fungal growth incubated for 48 hrs by microbroth dilution method; assay type: functional
Saccharomyces cerevisiae [10] = test: Antifungal activity against recombinant Saccharomyces cerevisiae Y525 overexpressing CaMdr1 assessed as inhibition of fungal growth incubated for 48 hrs by microbroth dilution method; assay type: functional
Saccharomyces cerevisiae [11] = test: Antifungal activity against recombinant Saccharomyces cerevisiae Y570 overexpressing CaCdr1 assessed as inhibition of fungal growth incubated for 48 hrs by microbroth dilution method; assay type: functional
[12] = Metabolic stability in human liver microsomes assessed as intrinsic clearance at 1 uM preincubated for 10 mins followed by NADPH addition and measured upto 60 mins by LC-MS/MS analysis; assay type: ADME, Microsome; conditions: time < 70 min, read-out: CLH
[13] = Metabolic stability in human liver microsomes assessed as half life at 1 uM preincubated for 10 mins followed by NADPH addition and measured upto 60 mins by LC-MS/MS analysis; assay type: ADME, Microsome; conditions: time < 70 min
[14] = Hemolytic activity in rabbit RBC at 32 ug/ml incubated for 1 hr by absorbance based analysis; assay type: toxicity, cell-based, Oryctolagus cuniculus, Erythrocyte; conditions: rabbit red blood cells, at 32 µg/mL, read-out: Activity
[15] = Cytotoxicity against HUVEC cells assessed as cell survival at <16 ug/ml incubated for 24 hrs by CCK-8 assay relative to control; assay type: toxicity, cell-based; conditions: human, dose < 16 µg/ml, read-out: Survival
[16] = Cytotoxicity against HUVEC cells assessed as cell survival at 128 ug/ml incubated for 24 hrs by CCK-8 assay relative to control; assay type: toxicity, cell-based; conditions: human, at 128 µg/mL, read-out: Survival

CC(=O)N1CCN(c2ccc(OCC3COC(Cn4ccnc4)(c4ccc(Cl)cc4Cl)O3)cc2)CC1 (stereo unspecified) [KETOCONAZOLE]
MIC (Saccharomyces cerevisiae [1]): 1 µg/mL | MIC (Saccharomyces cerevisiae [2]): 1 µg/mL | MIC (Saccharomyces cerevisiae [3]): 1 µg/mL | MIC (Saccharomyces cerevisiae [4]): 0.5 µg/mL | MIC (Saccharomyces cerevisiae [5]): 2 µg/mL | MIC (Saccharomyces cerevisiae [6]): 0.5 µg/mL | MIC (Saccharomyces cerevisiae [7]): 2 µg/mL | MIC (Saccharomyces cerevisiae [8]): 2 µg/mL | MIC (Saccharomyces cerevisiae [9]): 0.5 µg/mL | MIC (Saccharomyces cerevisiae [10]): 1 µg/mL | MIC (Saccharomyces cerevisiae [11]): > 64 µg/mL

Cc1ncc2n1-c1ccc(Cl)cc1C(c1ccccc1F)=NC2 [MIDAZOLAM]
microsomal CLint at 1 µM [12]: 297 µL/min/mg | half-life at 1 µM [13]: 4.67 min

C[C@@H]1[C@H](O)[C@@H](C)/C=C/C=C/C=C/C=C/C=C/C=C/C=C/[C@H](O[C@@H]2O[C@H](C)[C@@H](O)[C@H](N)[C@@H]2O)C[C@@H]2O[C@](O)(C[C@@H](O)C[C@@H](O)[C@H](O)CC[C@@H](O)C[C@@H](O)CC(=O)O[C@H]1C)C[C@H](O)[C@H]2C(=O)O [AMPHOTERICIN B]
hemolysis at 1 h, 32 ug/ml [14]: > 50% | viability at 24 h [15]: 50% | viability at 24 h, 128 ug/ml [16]: 26.1%
